Measured values reported in US20070254955A1, “Nail softener for use in deformed-nail corrective treatment or nail-structure modification, enclosure for external chemicals and method of correcting deformed nail” (priority 2003, published 2007).

What was measured:
ingrown nail [1] = assay: Ingrown-nail correction with nail softener in enclosure plus superelastic alloy wire (Second Example, deep nail); format: in vivo; conditions: reposition by action of superelastic alloy wire
Text: With reference to the drawings, an ingrown-nail correcting method using the enclosure according to one embodiment of the present invention will be described below. As mentioned above, the cases of ingrown nails include one case of a sufficiently grown nail, and another case of a deep nail. While the deformed-nail correcting method using the enclosure of the present invention can be applied to both the cases, the second example will be described in conjunction with one case where the method is applied to a deep nail. An emulsifying agent was first added to ammonium thioglycolate serving as a reducing agent to prepare a 5% (weight %) ammonium thioglycolate mail softener in the form of cream or paste. […] The through-hole P1c was formed to fix one of the ends of a superelastic alloy wire w (see the aforementioned Patent Publication). Further, four small holes P2 serving as anchoring holes of resin r for fixing the other end of the wire were formed in the other lateral side region n2 of the nail. One of the ends of the wire w is inserted into the central through-hole p1c. Then, the wire w was folded toward the other side region n2 or a flat region, and brought into close contact with the surface of the nail. A resin r was applied onto the curved region n1 to fix one end of the wire w. An ultra-fast cure type autopolymerizing resin (GC Unifast II: trade name of GC Co.) was used as the resin. […]

ingrown nail [2] = assay: Deformed-nail corrective treatment with nail softener (First Example, sufficiently grown ingrown nail); format: in vivo; conditions: nail repositioned by fingertips, immobilized with resin for one hour; FIG. 4
Text: With reference to the drawings, a deformed-nail correcting method using the nail softener according to one embodiment of the present invention will be described below. The cases of ingrown nails include one case of a sufficiently grown nail, and another case of a deep nail. While the deformed-nail correcting method using the nail softener of the present invention can be applied to both the cases, the first example will be described in conjunction with one case where the method is applied to a sufficiently grown nail. An emulsifying agent was first added to ammonium thioglycolate serving as a reducing agent to prepare a 5% (weight %) ammonium thioglycolate mail softener in the form of cream or paste. […] The number of the small through-hole may be changed according to the state of the nail, and may be, for example, two. The prepared nail softener was applied onto the entire surface of the nail at a thickness of about 5 mm, and left the nail untouched. After 25 minutes from the application of the nail softener to the nail, the state of the nail was checked. […] Thus, the nail softener was washed away and removed from the nail using a hot water. […] In order to maintain the corrected position, a resin 12 was attached onto the upper surface of the nail to close the small through-holes 10 formed in the front region of the nail (see FIG. 3). […]

| Compound | result of the corrective treatment (reposition of the ingrown nail) (ingrown nail [1]) | result of the corrective treatment (correction of the deformed nail) (ingrown nail [2]) |
| --- | --- | --- |
| N[C@@H](CS)C(=O)O [cysteine] | substantially the same result | substantially the same result |
| O=C(O)CS [thioglycolic acid] | substantially the same result | substantially the same result |
